Assay results as given in US20250002473A1, “QUINOXALINE DERIVED SULFONAMIDES WITH EGFR DEGRADATION ACTIVITIES AND THEIR USES THEREOF” (Accutar Biotechnology Inc., priority 2023, published 2025).
Where two headings read alike, the source gives them in different places.

What was measured:
Assay type in all cases: cell-based
HCC827_LTC = assay: Cell growth inhibition assay (CellTiter-Glo), HCC827_LTC; settings: 72 h; Table 8; HCC827 expressing human EGFR L858R/T790M/C797S, endogenous EGFR knockout, three days
Method: (§1) HCC827_LTC and HCC827_DTC cell lines were generated by first transducing HCC827 cells (ATCC) with lentiviral particles expressing codon-optimized human EGFR L858R/T790M/C797S (LTC) mutant or Del19/T790M/C797S (DTC) mutant, and then selecting under 5 μg/ml puromycin treatment for a week. The endogenous EGFR alleles were subsequently abolished using the Alt-R™ CRISPR-Cas9 technology (Integrated DNA Technologies). Single clones of HCC827_LTC and HCC827_DTC were selected and validated for endogenous EGFR knockout using Sanger sequencing.
(§2) Cells were seeded in a 96-well plate (Corning 3610) with 90 μL of culture medium per well, and plates were incubated at 37° C. overnight. A 1,000× DMSO stock solution of the desired compound was prepared the following day. A compound dilution plate was prepared by diluting the stock solution 1:100 in the corresponding cell culture medium, 10 μL of the diluted compound solution was added to each 96-well plate well containing the seeded cells. Then, the cells were cultured at 37° C. for three days following compound treatment, 100 μL of CellTiter-Glo reagents (Promega G7573) was added to each well of the 96-well plate. The content of the wells was mixed by shaking continuously for 10 min, and luminescence was measured using Envision (PerkinElmer). The data were analyzed with GraphPad Prism 9 (see FIG. 50).
(§3) Table 6, Table 7, and Table 8 list the cell growth inhibition results, where Gls0 represents the compound concentration to cause 50% cell growth inhibition in comparison with DMSO.

BaF3_DTC = assay: Cell growth inhibition assay (CellTiter-Glo), BaF3_DTC; settings: 72 h; Table 6; BaF3_DTC cells, three days, CellTiter-Glo; read-out: BaF3_DTC GI50
HCC827 = assay: Cell growth inhibition assay (CellTiter-Glo), HCC827; settings: Homo sapiens, 72 h, Table 8, HCC827 cells, three days
Method: as §1, §2, §3

BaF3_ASV = assay: Cell growth inhibition assay (CellTiter-Glo), BaF3_ASV; settings: 72 h; Table 6; BaF3_ASV cells, three days, CellTiter-Glo; read-out: BaF3_ASV GI50
A431 = assay: Cell growth inhibition assay (CellTiter-Glo), A431; settings: Homo sapiens, A-431, 72 h, A431 cells, three days, read-out: A431 GI50
How it was run: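 Cells were plated in 96-well plates (Corning 3610) at 90 μL of culture medium per well and incubated overnight at 37° C. The next day, a 1,000× DMSO compound stock was diluted 1:100 in cell culture medium, and 10 μL was added per well. After shaking for 10 min, luminescence was read on an Envision (PerkinElmer) reader.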

NCI-H2073 = assay: Cell growth inhibition assay (CellTiter-Glo), NCI-H2073; settings: 72 h; Table 8; NCI-H2073 cells, three days
Method: as §2, with “Then, the cells were cultured at 37° C. for three days following compound treatment, 100 μL of CellTiter-Glo reagents (Promega G7573) was added to each well of the 96-well plate.” left out
as §3

[1] = molecular target: T1, BaF3_ASV (EGFR_A776inASV) (Homo sapiens, UniProt P00533, DUP767-769); assay: EGFR degradation assay (western blot), BaF3_ASV cells; settings: BaF3_ASV cells, compounds 24 h, western blot; read-out: BaF3_ASV DC50
T1 construct: expressed in transfected cells; host or cells: Ba/F3 (engineered)
How it was run: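 Cells seeded overnight, then exposed to compounds for 24 h; lysates run on western blot, EGFR probed with tubulin loading control and fluorescent secondary detection. DC50 = concentration giving 50% EGFR degradation.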

HCC827_DTC = assay: Cell growth inhibition assay (CellTiter-Glo), HCC827_DTC; settings: 72 h; Table 8; HCC827 expressing human EGFR Del19/T790M/C797S, endogenous EGFR knockout, three days
Method: as §1, §2, §3

T1 sequence (P00533 with tags, fused parts or gaps DUP767-769): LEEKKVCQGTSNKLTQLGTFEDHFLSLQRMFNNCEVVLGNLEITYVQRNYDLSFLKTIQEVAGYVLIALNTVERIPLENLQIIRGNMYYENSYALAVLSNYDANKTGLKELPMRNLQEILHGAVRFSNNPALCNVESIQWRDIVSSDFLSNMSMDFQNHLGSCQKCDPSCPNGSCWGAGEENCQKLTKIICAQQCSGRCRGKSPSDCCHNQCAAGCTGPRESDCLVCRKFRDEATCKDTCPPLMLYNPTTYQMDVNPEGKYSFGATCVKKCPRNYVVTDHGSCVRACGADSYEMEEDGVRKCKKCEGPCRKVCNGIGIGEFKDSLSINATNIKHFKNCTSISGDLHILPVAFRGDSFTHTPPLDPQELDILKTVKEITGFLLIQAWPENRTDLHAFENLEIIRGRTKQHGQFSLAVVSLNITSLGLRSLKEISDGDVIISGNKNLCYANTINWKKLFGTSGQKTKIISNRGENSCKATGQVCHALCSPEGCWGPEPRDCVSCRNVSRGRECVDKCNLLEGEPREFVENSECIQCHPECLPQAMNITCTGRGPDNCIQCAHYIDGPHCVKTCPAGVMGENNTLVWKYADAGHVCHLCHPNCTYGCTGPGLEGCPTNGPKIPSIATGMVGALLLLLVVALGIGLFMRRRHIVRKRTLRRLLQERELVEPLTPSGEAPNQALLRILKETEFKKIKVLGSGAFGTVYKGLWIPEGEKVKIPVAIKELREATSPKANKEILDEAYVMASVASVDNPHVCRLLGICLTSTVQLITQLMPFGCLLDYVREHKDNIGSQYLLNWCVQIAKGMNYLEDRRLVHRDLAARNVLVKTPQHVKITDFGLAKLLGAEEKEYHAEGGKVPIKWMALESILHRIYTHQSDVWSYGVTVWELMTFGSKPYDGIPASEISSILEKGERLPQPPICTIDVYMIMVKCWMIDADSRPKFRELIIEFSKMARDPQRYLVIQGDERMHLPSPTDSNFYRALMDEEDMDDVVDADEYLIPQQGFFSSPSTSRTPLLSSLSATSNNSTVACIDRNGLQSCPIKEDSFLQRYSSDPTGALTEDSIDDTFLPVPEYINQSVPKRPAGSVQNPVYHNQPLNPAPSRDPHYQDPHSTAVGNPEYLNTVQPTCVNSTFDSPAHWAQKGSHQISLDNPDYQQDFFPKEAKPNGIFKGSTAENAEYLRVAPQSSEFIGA

| GI50 (HCC827_LTC) | GI50 (HCC827) | GI50 (A431; Table 8) | GI50 (NCI-H2073) | GI50 (HCC827_DTC) | SMILES | GI50 (BaF3_DTC) | GI50 (BaF3_ASV) | GI50 (A431; Table 6, CellTiter-Glo) | DC50 [1] |
| --- | --- | --- | --- | --- | --- | --- | --- | --- | --- |
| 0.77 nM | 0.22 nM | 164 nM | 654 nM | 2.6 nM | COc1cc(N2CCN(C(=O)CN3CCC(c4ccc(NC5CCC(=O)NC5=O)cc4)CC3)CC2)c(-c2cnn(C)c2)cc1Nc1ncc(Br)c(Nc2ccc3nccnc3c2NS(C)(=O)=O)n1 (centres unmarked) [Compound 79, N-(6-((5-bromo-2-((4-(4-(2-(4-(4-((2,6-dioxopiperidin-3-yl)amino)phenyl)piperidin-1-yl)acetyl)piperazin-1-yl)-2-methoxy-5-(1-methyl-1H-pyrazol-4-yl)phenyl)amino)pyrimidin-4-yl)amino)quinoxalin-5-yl)methanesulfonamide] | – | – | – | – |
| 2.03 nM | 2.41 nM | 746 nM | > 3000 nM | 4.21 nM | COc1cc(N2CCC(N3CC4(CN(C(=O)CC5(O)CCN(c6ccc(NC7CCC(=O)NC7=O)cc6F)CC5)C4)C3)CC2)c(-c2cnn(C)c2)cc1Nc1ncc(Br)c(Nc2ccc3nccnc3c2NS(C)(=O)=O)n1 (centres unmarked) [Compound 81, N-(6-((5-bromo-2-((4-(4-(6-(2-(1-(4-((2,6-dioxopiperidin-3-yl)amino)-2-fluorophenyl)-4-hydroxypiperidin-4-yl)acetyl)-2,6-diazaspiro[3.3]heptan-2-yl)piperidin-1-yl)-2-methoxy-5-(1-methyl-1H-pyrazol-4-yl)phenyl)amino)pyrimidin-4-yl)amino)quinoxalin-5-yl)methanesulfonamide] | – | – | – | – |
| 8.58 nM | 5.51 nM | > 3000 nM | > 3000 nM | 19.4 nM | COc1cc(N2CCC(CN3CCN(c4ccc5c(c4)C(=O)N(C4CCC(=O)NC4=O)C5=O)CC3)CC2)c(-c2cnn(C)c2)cc1Nc1ncc(Br)c(Nc2ccc3nccnc3c2NS(C)(=O)=O)n1 (centres unmarked) [Compound 83, N-(6-((5-bromo-2-((4-(4-((4-(2-(2,6-dioxopiperidin-3-yl)-1,3-dioxoisoindolin-5-yl)piperazin-1-yl)methyl)piperidin-1-yl)-2-methoxy-5-(1-methyl-1H-pyrazol-4-yl)phenyl)amino)pyrimidin-4-yl)amino)quinoxalin-5-yl)methanesulfonamide] | – | – | – | – |
| 11 nM | 6.81 nM | 389 nM | 721 nM | 79.4 nM | COc1cc(N2CCN(C(=O)CN3CCN(c4ccc(NC5CCC(=O)NC5=O)cc4)CC3)CC2)c(-c2cnn(C)c2)cc1Nc1ncc(Br)c(Nc2ccc3nccnc3c2NS(C)(=O)=O)n1 (centres unmarked) [Compound 80, N-(6-((5-bromo-2-((4-(4-(2-(4-(4-((2,6-dioxopiperidin-3-yl)amino)phenyl)piperazin-1-yl)acetyl)piperazin-1-yl)-2-methoxy-5-(1-methyl-1H-pyrazol-4-yl)phenyl)amino)pyrimidin-4-yl)amino)quinoxalin-5-yl)methanesulfonamide] | – | – | – | – |

| SMILES | GI50 (HCC827_LTC) | GI50 (HCC827) | GI50 (A431; Table 8) | GI50 (NCI-H2073) | GI50 (HCC827_DTC) | GI50 (BaF3_DTC) | GI50 (BaF3_ASV) | GI50 (A431; Table 6, CellTiter-Glo) | DC50 [1] |
| --- | --- | --- | --- | --- | --- | --- | --- | --- | --- |
| CCn1c(=O)n(C2CCC(=O)NC2=O)c2cccc(CCN3CCN(C4CCN(c5cc(OC)c(Nc6ncc(Br)c(Nc7ccc8nccnc8c7NS(C)(=O)=O)n6)cc5-c5cnn(C)c5)CC4)CC3)c21 (centres unmarked) [Compound 28, N-(6-((5-bromo-2-((4-(4-(4-(2-(1-(2,6-dioxopiperidin-3-yl)-3-ethyl-2-oxo-2,3-dihydro-1H-benzo[d]imidazol-4-yl)ethyl)piperazin-1-yl)piperidin-1-yl)-2-methoxy-5-(1-methyl-1H-pyrazol-4-yl)phenyl)amino)pyrimidin-4-yl)amino)quinoxalin-5-yl)methanesulfonamide] | 1.03 nM | 0.52 nM | 150 nM | 340 nM | 4.42 nM | 15.8 nM | 56.3 nM | 271 nM | 93.6 nM |
